The source of these data is patent US11535621B2, “Heterobicyclic amides as inhibitors of CD38” (Ribon Therapeutics, Inc., priority 2019, dated 2022).

Chain of Human CD38 (P28907 whole entry): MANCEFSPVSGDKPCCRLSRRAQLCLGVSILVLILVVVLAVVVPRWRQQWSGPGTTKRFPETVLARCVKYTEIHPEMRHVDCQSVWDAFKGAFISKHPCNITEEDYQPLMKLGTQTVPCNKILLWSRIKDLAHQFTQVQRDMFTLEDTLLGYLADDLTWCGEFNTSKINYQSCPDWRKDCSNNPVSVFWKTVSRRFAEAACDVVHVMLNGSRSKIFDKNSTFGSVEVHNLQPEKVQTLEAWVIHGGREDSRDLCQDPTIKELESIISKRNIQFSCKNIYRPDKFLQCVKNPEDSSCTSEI

The assay concerns the target Human CD38 (Homo sapiens (Human), UniProt P28907). Briefly: CD38 enzyme assay. In kind it is biochemical. The settings on record: 2 nM CD38, NAD+ substrate, absorbance at 405 nm. From the text: [formula] where SUBcmpd is the subtracted value for the individual compound treated well, SUBmin is the average of the subtracted values of the 4-(((1r,4r)-4-(2-methoxyethoxy)cyclohexyl)amino)-1-methyl-6-(thiazol-5-yl)quinolin-2(1H)-one positive control wells and SUBmax is the average of the subtracted values of the DMSO negative control wells.
The % inhibition values were plotted as a function of compound concentration and the following 4-parameter fit was applied to derive the IC50 values:
[formula] where top and bottom are normally allowed to float, but may be fixed at 100 or 0 respectively in a 3-parameter fit. The Hill Coefficient is normally allowed to float but may also be fixed at 1 in a 3-parameter fit. Y is the % inhibition and X is the compound concentration.
For orientation: IC50 means the concentration that gives 50% inhibition. `O=C(NCc1c(F)cccc1C(F)(F)F)c1cc(-c2cncs2)cc2cc[nH]c12` [Example 31, N-(2-Fluoro-6-(trifluoromethyl)benzyl)-5-(thiazol-5-yl)-1H-indole-7-carboxamide] came in with an IC50 of 10 to 100 nM. As for `COCCO[C@H]1CC[C@H](NC(=O)c2nc(-c3cncs3)nc3cc[nH]c23)CC1` [Example 32, N-((1r,4r)-4-(2-Methoxyethoxy)cyclohexyl)-2-(thiazol-5-yl)-5H-pyrrolo[3,2-d]pyrimidine-4-carboxamide], the figure is 10 to 100 nM; as for `O=C(NCc1c(F)cccc1C(F)(F)F)c1nc(-c2cncs2)cc2nc[nH]c12` [Example 33, N-(2-Fluoro-6-(trifluoromethyl)benzyl)-6-(thiazol-5-yl)-3I-imidazo[4,5-c]pyridine-4-carboxamide], > 1000 nM. As for `COCCO[C@H]1CC[C@H](NC(=O)c2nc(-n3ccnc3C)nc3cc[nH]c23)CC1` [Example 34, N-((1r,4r)-4-(2-Methoxyethoxy)cyclohexyl)-2-(2-methyl-1H-imidazol-1-yl)-5H-pyrrolo[3,2-d]pyrimidine-4-carboxamide], the figure is > 1000 nM; as for `COCCO[C@H]1CC[C@H](NC(=O)c2nc(-c3cn[nH]n3)nc3cc[nH]c23)CC1` [Example 35, N-((1r,4r)-4-(2-Methoxyethoxy)cyclohexyl)-2-(2H-1,2,3-triazol-4-yl)-5H-pyrrolo[3,2-d]pyrimidine-4-carboxamide], > 1000 nM; as for `COCCO[C@H]1CC[C@H](NC(=O)c2nc(-n3cncc3C)nc3cc[nH]c23)CC1` [Example 36, N-((1r,4r)-4-(2-Methoxyethoxy)cyclohexyl)-2-(5-methyl-1H-imidazol-1-yl)-5H-pyrrolo[3,2-d]pyrimidine-4-carboxamide], 10 to 100 nM. As for `COCCO[C@H]1CC[C@H](NC(=O)c2nc(-n3cnc(C)c3)nc3cc[nH]c23)CC1` [Example 37, N-((1r,4r)-4-(2-methoxyethoxy)cyclohexyl)-2-(4-methyl-1H-imidazol-1-yl)-5H-pyrrolo[3,2-d]pyrimidine-4-carboxamide], the figure is > 1000 nM; as for `COCCO[C@H]1CC[C@H](NC(=O)c2nc(-c3c[nH]cn3)nc3cc[nH]c23)CC1` [Example 38, 2-(1H-Imidazol-4-yl)-N-((1r,4r)-4-(2-methoxyethoxy)cyclohexyl)-5H-pyrrolo[3,2-d]pyrimidine-4-carboxamide], > 1000 nM; as for `O=C(N[C@H]1CC[C@@H](C(F)(F)F)CC1)c1nc(-n2ccnc2)nc2cc[nH]c12` [Example 39a, 2-(1H-Imidazol-1-yl)-N-((1s,4s)-4-(trifluoromethyl)cyclohexyl)-5H-pyrrolo[3,2-d]pyrimidine-4-carboxamide], < 10 nM. As to `O=C(N[C@H]1CC[C@H](C(F)(F)F)CC1)c1nc(-n2ccnc2)nc2cc[nH]c12` [Example 39b, 2-(1H-imidazol-1-yl)-N-((1r,4r)-4-(trifluoromethyl)cyclohexyl)-5H-pyrrolo[3,2-d]pyrimidine-4-carboxamide], the IC50 is < 10 nM. As for `COCCO[C@H]1CC[C@H](NC(=O)c2cc(-n3ccnc3)cc3cnsc23)CC1` [Example 41, 5-(1H-Imidazol-1-yl)-N-((1r,4r)-4-(2-methoxyethoxy)cyclohexyl)benzo[d]isothiazole-7-carboxamide], the figure is 100 to 1000 nM; as for `Cc1nc2cc(-n3ccnc3)cc(C(=O)NCc3c(F)cccc3C(F)(F)F)c2[nH]1` [Example 42, N-(2-Fluoro-6-(trifluoromethyl)benzyl)-5-(1H-imidazol-1-yl)-2-methyl-1H-benzo[d]imidazole-7-carboxamide], 100 to 1000 nM. `O=C(NCc1c(F)cccc1C(F)(F)F)c1nc(-c2cncs2)nc2cc[nH]c12` [Example 43, N-(2-Fluoro-6-(trifluoromethyl)benzyl)-2-(thiazol-5-yl)-5H-pyrrolo[3,2-d]pyrimidine-4-carboxamide] displayed an IC50 of 100 to 1000 nM. Compound `O=C(NCc1c(F)cccc1C(F)(F)F)c1cc(-n2ccnc2)nc2cc[nH]c12` [Example 44, N-(2-Fluoro-6-(trifluoromethyl)benzyl)-5-(1H-imidazol-1-yl)-1H-pyrrolo[3,2-b]pyridine-7-carboxamide] registered an IC50 of 10 to 100 nM. The value for `COCCO[C@H]1CC[C@H](NC(=O)c2cc(-c3cncs3)cc3cc(C)[nH]c23)CC1` [Example 45, N-((1r,4r)-4-(2-Methoxyethoxy)cyclohexyl)-2-methyl-5-(thiazol-5-yl)-1H-indole-7-carboxamide] was 100 to 1000 nM. The value for `O=C(NCc1c(F)cccc1C(F)(F)F)c1nc(-n2ccnc2)nc2nc[nH]c12` [Example 46, N-(2-Fluoro-6-(trifluoromethyl)benzyl)-2-(1H-imidazol-1-yl)-7H-purine-6-carboxamide] was 10 to 100 nM; that for `COCCO[C@H]1CC[C@H](NC(=O)c2nc(-c3cncs3)cc3nc[nH]c23)CC1` [Example 47, N-((1r,4r)-4-(2-Methoxyethoxy)cyclohexyl)-6-(thiazol-5-yl)-3H-imidazo[4,5-c]pyridine-4-carboxamide] was > 1000 nM. `O=C(NCc1c(F)cccc1C(F)(F)F)c1nc(-n2ccnc2)cc2cn[nH]c12` [Example 48, N-(2-Fluoro-6-(trifluoromethyl)benzyl)-5-(1H-imidazol-1-yl)-1H-pyrazolo[3,4-c]pyridine-7-carboxamide] came in with a half-maximal inhibitory concentration (IC50) of 10 to 100 nM. As for `O=C(NCc1c(F)cccc1C(F)(F)F)c1nc(-n2ccnc2)nc2ccsc12` [Example 49, N-(2-Fluoro-6-(trifluoromethyl)benzyl)-2-(1H-imidazol-1-yl)thieno[3,2-d]pyrimidine-4-carboxamide], the figure is 10 to 100 nM; as for `COCCO[C@H]1CC[C@H](NC(=O)c2nc(-c3cncs3)nc3ccsc23)CC1` [Example 50, N-((1r,4r)-4-(2-Methoxyethoxy)cyclohexyl)-2-(thiazol-5-yl)thieno[3,2-d]pyrimidine-4-carboxamide], 10 to 100 nM.

For `O=C(NCc1c(F)cccc1C(F)(F)F)c1nc(-n2ccnc2)nc2cc[nH]c12` [Example 51, N-(2-Fluoro-6-(trifluoromethyl)benzyl)-2-(1H-imidazol-1-yl)-5H-pyrrolo[3,2-d]pyrimidine-4-carboxamide], the IC50 lay in the range of 10 to 100 nM. The value for `O=C(NC1CCN(CC(F)(F)F)CC1)c1nc(-n2ccnc2)nc2cc[nH]c12` [Example 52, 2-(1H-Imidazol-1-yl)-N-(1-(2,2,2-trifluoroethyl)piperidin-4-yl)-5H-pyrrolo[3,2-d]pyrimidine-4-carboxamide] was 10 to 100 nM; that for `COCCN1CCC(NC(=O)c2nc(-n3ccnc3)nc3cc[nH]c23)CC1` [Example 53, 2-(1H-Imidazol-1-yl)-N-(1-(2-methoxyethyl)piperidin-4-yl)-5H-pyrrolo[3,2-d]pyrimidine-4-carboxamide] was 100 to 1000 nM. The value for `O=C(NC1CCNCC1)c1nc(-n2ccnc2)nc2cc[nH]c12` [Example 54, 2-(1H-Imidazol-1-yl)-N-(piperidin-4-yl)-5H-pyrrolo[3,2-d]pyrimidine-4-carboxamide] was > 1000 nM; that for `O=C(NC1CCN(CCC(F)(F)F)CC1)c1nc(-n2ccnc2)nc2cc[nH]c12` [Example 55, 2-(1H-Imidazol-1-yl)-N-(1-(3,3,3-trifluoropropyl)piperidin-4-yl)-5H-pyrrolo[3,2-d]pyrimidine-4-carboxamide] was 10 to 100 nM; that for `COCCN[C@H]1CC[C@H](NC(=O)c2nc(-n3ccnc3)nc3cc[nH]c23)CC1` [Example 56, 2-(1H-Imidazol-1-yl)-N-((1r,4r)-4-((2-methoxyethyl)amino)cyclohexyl)-5H-pyrrolo[3,2-d]pyrimidine-4-carboxamide] was 10 to 100 nM.

As for `COCCN(C)[C@H]1CC[C@H](NC(=O)c2nc(-n3ccnc3)nc3cc[nH]c23)CC1` [Example 57, 2-(1H-Imidazol-1-yl)-N-((1r,4r)-4-((2-methoxyethyl)(methyl)amino)cyclohexyl)-5H-pyrrolo[3,2-d]pyrimidine-4-carboxamide], the IC50 was in the range of 10 to 100 nM. As for `CO[C@H]1CC[C@H](NC(=O)c2nc(-n3ccnc3)nc3cc[nH]c23)CC1` [Example 58, 2-(1H-Imidazol-1-yl)-N-((1r,4r)-4-methoxycyclohexyl)-5H-pyrrolo[3,2-d]pyrimidine-4-carboxamide], the figure is < 10 nM. As for `O=C(NC1CCCCC1)c1nc(-n2ccnc2)nc2cc[nH]c12` [Example 59, N-cyclohexyl-2-(1H-Imidazol-1-yl)-5H-pyrrolo[3,2-d]pyrimidine-4-carboxamide], the figure is < 10 nM; as for `CN1CCC(NC(=O)c2nc(-n3ccnc3)nc3cc[nH]c23)CC1` [Example 60, 2-(1H-Imidazol-1-yl)-N-(1-methylpiperidin-4-yl)-5H-pyrrolo[3,2-d]pyrimidine-4-carboxamide], > 1000 nM. `O=C(NC1CCS(=O)(=O)CC1)c1nc(-n2ccnc2)nc2cc[nH]c12` [Example 61, N-(1,1-Dioxidotetrahydro-2H-thiopyran-4-yl)-2-(1H-imidazol-1-yl)-5H-pyrrolo[3,2-d]pyrimidine-4-carboxamide] returned an IC50 of 10 to 100 nM. As for `O=C(NC1CCOCC1)c1nc(-n2ccnc2)nc2cc[nH]c12` [Example 62, 2-(1H-Imidazol-1-yl)-N-(tetrahydro-2H-pyran-4-yl)-5H-pyrrolo[3,2-d]pyrimidine-4-carboxamide], the figure is 10 to 100 nM; as for `COCCOc1ccc(NC(=O)c2nc(-n3ccnc3)nc3cc[nH]c23)cc1` [Example 63, 2-(1H-Imidazol-1-yl)-N-(4-(2-methoxyethoxy)phenyl)-5H-pyrrolo[3,2-d]pyrimidine-4-carboxamide], < 10 nM; as for `CC(=O)N1CCC(NC(=O)c2nc(-n3ccnc3)nc3cc[nH]c23)CC1` [Example 64, N-(1-Acetylpiperidin-4-yl)-2-(1H-imidazol-1-yl)-5H-pyrrolo[3,2-d]pyrimidine-4-carboxamide], 10 to 100 nM.
